Source: patent publication US10131652B2, “Pyrimidinyloxy benzene derivatives as herbicides” (E. I. DU PONT DE NEMOURS AND COMPANY, priority 2014, dated 2018)
Where two headings read alike, the source gives them in different places.

Tests used:
Type in all cases: in vivo
[1] = system: Italian ryegrass (Lolium multiflorum); assay: Test B pre-/postemergence plant response; conditions: 1000 g ai/ha, 0 to 100 scale (0 no effect, 100 complete control)
In short: (§1)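 Visual injury scores on a 0–100 scale (100 = complete control) relative to untreated plants, taken about 10 days post-treatment in greenhouse. Treatments were a directed preemergence soil spray and a postemergence spray at one- to two-leaf stage, using surfactant-containing solvent formulation.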

[2] = system: ragweed (common ragweed, Ambrosia elatior); assay: Test B pre-/postemergence plant response; conditions: 1000 g ai/ha, 0 to 100 scale (0 no effect, 100 complete control)
In short: as §1

kochia (Kochia scoparia) = assay: Test B pre-/postemergence plant response; conditions: 1000 g ai/ha, 0 to 100 scale (0 no effect, 100 complete control)
In short: as §1

[3] = system: small-flower umbrella sedge (Cyperus difformis); assay: Test C flooded paddy test plant response; conditions: Cyperus difformis; Flood, 250 g ai/ha; scale of 0 to 100 where 0 is no effect and 100 is complete control; 13 to 15 days; read-out: Sedge, Umbrella plant response rating
In short: (§2)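 Readout is a visual 0–100 score (100 = complete control) versus controls at 13–15 days. Plants at 2-leaf stage, flooded to 3 cm, treated through paddy water.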

[4] = system: barnyardgrass (Echinochloa crus-galli); assay: Test C flooded paddy test plant response; conditions: Echinochloa crus-galli; Flood, 250 g ai/ha; scale of 0 to 100 where 0 is no effect and 100 is complete control; 13 to 15 days; read-out: Barnyardgrass plant response rating
In short: as §2

[5] = system: ducksalad (Heteranthera limosa); assay: Test C flooded paddy test plant response; conditions: Heteranthera limosa; Flood, 250 g ai/ha; scale of 0 to 100 where 0 is no effect and 100 is complete control; 13 to 15 days; read-out: Ducksalad plant response rating
In short: as §2

rice (Oryza sativa) = assay: Test C flooded paddy test plant response; conditions: Oryza sativa; Flood, 250 g ai/ha; scale of 0 to 100 where 0 is no effect and 100 is complete control; 13 to 15 days; read-out: Rice plant response rating
In short: as §2

[6] = system: johnsongrass (Sorghum halepense); assay: Test D pre-/postemergence plant response; conditions: Sorghum halepense; for pest or weed control at 16 g/ha: 16 g ai/ha; for pest or weed control at 31 g/ha: 31 g ai/ha; for pest or weed control at 62 g/ha: 62 g ai/ha; for pest or weed control at 125 g/ha: 125 g ai/ha
In short: (§3)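 Visual rating, 0–100 scale (0 = no effect, 100 = complete control), versus untreated controls 13 to 15 days after treatment in greenhouse. Preemergence: seeds in loam/sand soil. Postemergence: 2 to 18 cm plants, 1- to 4-leaf stage, peat-based medium. Compounds formulated in non-phytotoxic solvent plus surfactant.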

[7] = system: oilseed rape (Brassica napus); assay: Test D pre-/postemergence plant response; conditions: Brassica napus; for plant injury at 16 g/ha: 16 g ai/ha; for plant injury at 31 g/ha: 31 g ai/ha; for plant injury at 62 g/ha: 62 g ai/ha; for plant injury at 125 g/ha: 125 g ai/ha
In short: as §3

[8] = system: barnyardgrass (Echinochloa crus-galli); assay: Test D pre-/postemergence plant response; conditions: Echinochloa crus-galli; for pest or weed control at 16 g/ha: 16 g ai/ha; for pest or weed control at 16 g/ha / pest or weed control at 31 g/ha: scale 0 to 100 (0 no effect, 100 complete control); for pest or weed control at 31 g/ha: 31 g ai/ha; for pest or weed control at 62 g/ha: 62 g ai/ha; for pest or weed control at 125 g/ha: 125 g ai/ha
In short: as §3

[9] = system: pigweed (Amaranthus retroflexus); assay: Test D pre-/postemergence plant response; conditions: Amaranthus retroflexus; for pest or weed control at 16 g/ha: 16 g ai/ha; for pest or weed control at 31 g/ha: 31 g ai/ha; for pest or weed control at 62 g/ha: 62 g ai/ha; for pest or weed control at 125 g/ha: 125 g ai/ha
In short: as §3

[10] = system: velvetleaf (Abutilon theophrasti); assay: Test D pre-/postemergence plant response; conditions: Abutilon theophrasti; for pest or weed control at 16 g/ha: 16 g ai/ha; for pest or weed control at 31 g/ha: 31 g ai/ha; for pest or weed control at 62 g/ha: 62 g ai/ha; for pest or weed control at 125 g/ha: 125 g ai/ha
In short: as §3

[11] = system: giant foxtail (Setaria faberii); assay: Test D pre-/postemergence plant response; conditions: Setaria faberi; for pest or weed control at 16 g/ha: 16 g ai/ha; for pest or weed control at 31 g/ha: 31 g ai/ha; for pest or weed control at 62 g/ha: 62 g ai/ha; for pest or weed control at 125 g/ha: 125 g ai/ha
In short: as §3

[12] = system: blackgrass (Alopecurus myosuroides); assay: Test D pre-/postemergence plant response; conditions: Alopecurus myosuroides; for pest or weed control at 16 g/ha: 16 g ai/ha; for pest or weed control at 31 g/ha: 31 g ai/ha; for pest or weed control at 62 g/ha: 62 g ai/ha; for pest or weed control at 125 g/ha: 125 g ai/ha
In short: as §3

[13] = post-emergence, Postemergence, scale 0 to 100 (0 no effect, 100 complete control), read-out: Johnsongrass plant response rating
[14] = post-emergence, Postemergence, scale 0 to 100, 0 no effect, 100 complete control, read-out: Plant response rating, Johnsongrass
[15] = pre-emergence, Preemergence, scale 0 to 100 (0 no effect, 100 complete control), read-out: Plant response rating, Johnsongrass
[16] = post-emergence, Postemergence, scale 0 to 100 (0 no effect, 100 complete control), read-out: Oilseed Rape plant response rating
[17] = post-emergence, Postemergence, scale 0 to 100, 0 no effect, 100 complete control, read-out: Plant response rating, Oilseed Rape
[18] = pre-emergence, Preemergence, scale 0 to 100 (0 no effect, 100 complete control), read-out: Plant response rating, Oilseed Rape
[19] = post-emergence, Postemergence, read-out: Barnyardgrass plant response rating
[20] = post-emergence, Postemergence, scale 0 to 100, 0 no effect, 100 complete control, read-out: Plant response rating, Barnyardgrass
[21] = pre-emergence, Preemergence, read-out: Plant response rating (scale 0 to 100), Barnyardgrass
[22] = pre-emergence, Preemergence, read-out: Plant response rating, Barnyardgrass
[23] = post-emergence, Postemergence, scale 0 to 100 (0 no effect, 100 complete control), read-out: Pigweed plant response rating
[24] = post-emergence, Postemergence, scale 0 to 100, 0 no effect, 100 complete control, read-out: Plant response rating, Pigweed
[25] = pre-emergence, Preemergence, scale 0 to 100 (0 no effect, 100 complete control), read-out: Plant response rating, Pigweed
[26] = post-emergence, Postemergence, scale 0 to 100 (0 no effect, 100 complete control), read-out: Velvetleaf plant response rating
[27] = post-emergence, Postemergence, scale 0 to 100, 0 no effect, 100 complete control, read-out: Plant response rating, Velvetleaf
[28] = pre-emergence, Preemergence, scale 0 to 100 (0 no effect, 100 complete control), read-out: Plant response rating, Velvetleaf
[29] = post-emergence, Postemergence, scale 0 to 100 (0 no effect, 100 complete control), read-out: Foxtail, Giant plant response rating
[30] = post-emergence, Postemergence, scale 0 to 100, 0 no effect, 100 complete control, read-out: Plant response rating, Foxtail, Giant
[31] = pre-emergence, Preemergence, scale 0 to 100 (0 no effect, 100 complete control), read-out: Plant response rating, Foxtail, Giant
[32] = post-emergence, Postemergence, scale 0 to 100 (0 no effect, 100 complete control), read-out: Blackgrass plant response rating
[33] = post-emergence, Postemergence, scale 0 to 100, 0 no effect, 100 complete control, read-out: Plant response rating, Blackgrass
[34] = pre-emergence, Preemergence, scale 0 to 100 (0 no effect, 100 complete control), read-out: Plant response rating, Blackgrass

Fc1cccc(Oc2ncc(Cl)cn2)c1-c1cc(C(F)F)on1 [Compound 55, 5-chloro-2-[2-[5-(difluoromethyl)-3-isoxazolyl]-3-fluorophenoxy]pyrimidine]
Plant response rating, Ryegrass, Italian ([1]; Postemergence): 100 | Plant response rating, Ryegrass, Italian ([1]; Preemergence): 100 | Plant response rating, Ragweed ([2]; Postemergence): 100 | Plant response rating, Ragweed ([2]; Preemergence): 100 | Plant response rating, Kochia (kochia (Kochia scoparia); Postemergence): 100 | Plant response rating, Kochia (kochia (Kochia scoparia); Preemergence): 100 | pest or weed control at 250 g/ha [3]: 90% | pest or weed control at 250 g/ha [4]: 25% | pest or weed control at 250 g/ha [5]: 100% | plant injury at 250 g/ha (rice (Oryza sativa)): 25% | pest or weed control at 16 g/ha [6, 13]: 5% | pest or weed control at 31 g/ha [6, 13]: 5% | pest or weed control at 62 g/ha [6, 14]: 10% | pest or weed control at 125 g/ha [6, 14]: 15% | pest or weed control at 125 g/ha ([6]; pre-emergence, Preemergence, read-out: Plant response rating (scale 0 to 100), Johnsongrass): 100% | pest or weed control at 16 g/ha [6, 15]: 30% | pest or weed control at 31 g/ha [6, 15]: 75% | pest or weed control at 62 g/ha [6, 15]: 85% | plant injury at 16 g/ha [7, 16]: 95% | plant injury at 31 g/ha [7, 16]: 95% | plant injury at 62 g/ha [7, 17]: 100% | plant injury at 125 g/ha [7, 17]: 100% | plant injury at 125 g/ha ([7]; pre-emergence, Preemergence, read-out: Plant response rating (scale 0 to 100), Oilseed Rape): 100% | plant injury at 16 g/ha [7, 18]: 100% | plant injury at 31 g/ha [7, 18]: 100% | plant injury at 62 g/ha [7, 18]: 100% | pest or weed control at 16 g/ha [8, 19]: 5% | pest or weed control at 31 g/ha [8, 19]: 10% | pest or weed control at 62 g/ha [8, 20]: 15% | pest or weed control at 125 g/ha [8, 20]: 15% | pest or weed control at 62 g/ha [8, 21]: 100% | pest or weed control at 125 g/ha [8, 21]: 100% | pest or weed control at 16 g/ha [8, 22]: 25% | pest or weed control at 31 g/ha [8, 22]: 85% | pest or weed control at 16 g/ha [9, 23]: 85% | pest or weed control at 31 g/ha [9, 23]: 85% | pest or weed control at 62 g/ha [9, 24]: 98% | pest or weed control at 125 g/ha [9, 24]: 100% | pest or weed control at 125 g/ha ([9]; pre-emergence, Preemergence, read-out: Plant response rating (scale 0 to 100), Pigweed): 100% | pest or weed control at 16 g/ha [9, 25]: 100% | pest or weed control at 31 g/ha [9, 25]: 100% | pest or weed control at 62 g/ha [9, 25]: 100% | pest or weed control at 16 g/ha [10, 26]: 35% | pest or weed control at 31 g/ha [10, 26]: 50% | pest or weed control at 62 g/ha [10, 27]: 75% | pest or weed control at 125 g/ha [10, 27]: 85% | pest or weed control at 125 g/ha ([10]; pre-emergence, Preemergence, read-out: Plant response rating (scale 0 to 100), Velvetleaf): 100% | pest or weed control at 16 g/ha [10, 28]: 90% | pest or weed control at 31 g/ha [10, 28]: 100% | pest or weed control at 62 g/ha [10, 28]: 100% | pest or weed control at 16 g/ha [11, 29]: 40% | pest or weed control at 31 g/ha [11, 29]: 50% | pest or weed control at 62 g/ha [11, 30]: 40% | pest or weed control at 125 g/ha [11, 30]: 75% | pest or weed control at 125 g/ha ([11]; pre-emergence, Preemergence, read-out: Plant response rating (scale 0 to 100), Foxtail, Giant): 100% | pest or weed control at 16 g/ha [11, 31]: 100% | pest or weed control at 31 g/ha [11, 31]: 100% | pest or weed control at 62 g/ha [11, 31]: 100% | pest or weed control at 16 g/ha [12, 32]: 5% | pest or weed control at 31 g/ha [12, 32]: 10% | pest or weed control at 62 g/ha [12, 33]: 30% | pest or weed control at 125 g/ha [12, 33]: 50% | pest or weed control at 125 g/ha ([12]; pre-emergence, Preemergence, read-out: Plant response rating (scale 0 to 100), Blackgrass): 90% | pest or weed control at 16 g/ha [12, 34]: 15% | pest or weed control at 31 g/ha [12, 34]: 90% | pest or weed control at 62 g/ha [12, 34]: 90%
